Series [1] relates to Jurkat T cells. Briefly: Proteomic analysis and modification site mapping of alkynyl-acetate analog-labeled proteins. In kind it is cell-based, human. Conditions: for qualitative comparison among alkynyl-acetate analogs as chemical reporter for protein acetylation: proteomics data and in vitro p300-acylation studies.
Series [2] has as its system Jurkat T cells. Briefly: Metabolic labeling of Jurkat T cells with alkynyl-acetate analogs, CuAAC with az-Rho, in-gel fluorescence scanning. Conditions: metabolically-labeled Jurkat T cells.
The test system of the next series is Jurkat T cell lysates. Briefly: Streptavidin affinity enrichment and Na2S2O4 elution of azido-chemical reporter labeled Jurkat T cell lysates reacted with alk-diazo-biotin. In kind it is cell-based, human. Conditions: Coomassie staining of polypeptides eluted from streptavidin beads.
The subject of series [3] is Jurkat cells. The series is described as follows: Metabolic labeling with inhibitors. Conditions: for class of acylated proteins targeted by the reporter: from CHX and NH2OH sensitivity in Jurkat cell lysates.
The test system of a further series is Lck. The series is described as follows: Pulse-chase tandem imaging of palmitate turnover on Lck in Jurkat T cells. In kind it is cell-based, human. Conditions: for effect of chemical inhibitor on palmitate turnover on Lck: added during the chase, 20 μM MAFP, 100 μM 2BP; for decay of reporter signal on Lck with excess myristate as the chase additive: over 6 hours.

Series [4] can be described thus: Absorbance and fluorescence studies of clickable CyFur dyes. In kind it is physicochemical. Conditions: for εmax^b (M^−1cm^−1): in MeOH, at 470 nm for az-CyFur-1, az-CyFur-2 and at 580 nm for alk-CyFur, averaged over three independent experiments; for ΦF^c: quantum yield referenced against cresyl violet, alk-CyFur excited at 580 nm, az-CyFur-1 and az-CyFur-2 at 470 nm; for λmax^a (nm) (first column) / λmax^a (nm) (second column): spectra obtained in DMSO. As to the method:
Absorbance and fluorescence studies. Absorption spectra and fluorescence data were collected on SpectraMax M2 multi-detection reader (Molecular Devices). The spectra in solution were obtained at 25° C. using a quartz cuvette with a path length of 1 cm. Fluorescence quantum yields (ΦF) of CyFur dyes were determined against cresyl violet (ΦF=0.54 in methanol).

A short description of series [5]: In vivo labeling of acylated proteins after intraperitoneal injection of alkynyl-chemical reporters. Conditions: mice, one hour, splenocytes, liver. The method, then: Livers were harvested and incubated with Liberase 3 Blendzyme™ (Roche, Mannheim, Germany) at 37° C. for 30 minutes+ and homogenized prior to filtration with 0.4 μm cell strainers. Splenocytes were prepared by manual disruption of spleens using forceps. Liver and splenocyte preparations were subjected to red blood cell lysis using ACK lysis buffer.
Livers and kidney were harvested and incubated with Liberase 3 Blendzyme (Roche, Mannheim, Germany) at 37° C. for 30 minutes and homogenized prior to filtration with 0.4 μm cell strainers. Splenocytes were prepared by manual disruption of spleens using forceps. Liver, kidney and splenocyte preparations were subjected to red blood cell lysis using ACK lysis buffer.

In a further series the test system is M. smegmatis. Briefly: Labeling of acylated proteins in bacterial cells with alkynyl-chemical reporters. In kind it is cell-based.
The test system of another series is Lck and LAT. The series is described as follows: Hydroxylamine cleavage of S-acylated proteins (in-gel), immunoprecipitated Lck and LAT. It is filed as cell-based, human. Conditions: 1 M NH2OH pH 7.4; alk-16 on Lck and LAT, alk-12 on Lck. As to the method:
(§1) Cell lysates were collected after centrifuging at 1,000 g for 5 minutes at 4° C. to remove cell debris. Protein concentration was determined by the BCA assay. Typical lysate protein concentration obtained: 6-8 mg/mL. LAT, Lck and Ras proteins were immunoprecipitated from 200 μg Jurkat cell lysate using the following antibodies at recommended concentrations: mouse anti-Lck (p56lck) monoclonal (Clone 3A5, Thermo Scientific, Waltham, Mass., USA), rat anti-v-H-ras (Ab-1) monoclonal (Y13-259 agarose conjugate, Calbiochem, San Diego, Calif., USA), and rabbit anti-LAT polyclonal (Millipore, Billerica, Mass., USA). A rabbit anti-Fyn polyclonal (Millipore, Billerica, Mass., USA) was used to immunoprecipitate wild type and mutant Fyn proteins from transfected and metabolically labeled HeLa cells. 25 μL of packed protein A-agarose beads (Roche, Mannheim, Germany) was used per sample.
The gel was finally washed with deionized water (2×5 minutes) and scanned for the post-hydroxylamine treatment fluorescence.

Series [6] concerns the target T1, Fyn (Homo sapiens, UniProt P06241).
T1 construct: expressed in transfected cells; host or cells: HeLa cells
Briefly: Alkynyl-fatty acid labeling of wild type, G2A and C3,6S Fyn overexpressed in HeLa cells, immunoprecipitation. It is filed as cell-based. Conditions: 20 μM reporter. As to the method:
(§2) HeLa cells were grown in 10 cm dishes to approximately 90% confluence in DMEM, supplemented with 10% FBS, and transfected with wildtype, G2A or C3,6S Fyn constructs using Lipofectamine 2000 (Invitrogen). The human Fyn constructs, wild type and mutant Fyn cDNAs cloned into eukaryotic expression vector pCMV5, were gifts from Dr. Marilyn Resh, Memorial Sloan-Kettering Cancer Center. The following day, cells were metabolically labeled with alkynyl-fatty acid analogs as described above.
as §1

In series [7] the target is T2, Fyn (Homo sapiens, UniProt P06241, G2A).
T2 construct: expressed in transfected cells; host or cells: HeLa cells
The series is described as above. Conditions: 20 μM reporter. It is filed as cell-based. As to the method: as §2, §1

The target in series [8] is T3, Fyn (Homo sapiens, UniProt P06241, C3S/C6S).
T3 construct: expressed in transfected cells; host or cells: HeLa cells
The description is as above. In kind it is cell-based. Conditions: 20 μM reporter. The method, then: as §2, §1

Series [9] relates to metabolic incorporation of chemical reporters. Briefly: Effect of inhibitors/additives on metabolic incorporation of alkynyl-chemical reporters. In kind it is cell-based.
Series [10] concerns acetylated proteins such as histones. The series is described as follows: Metabolic labeling of acetylated proteins with very short chain alkynyl-chemical reporters, in-gel fluorescence. It is filed as cell-based, human.
Series [11] deals with Jurkat cells. The series is described as follows: Competition of metabolic labeling with naturally occurring fatty acids. Conditions: 2 hours, myristic acid 0, 10 or 100 μM, palmitic acid 0, 100 or 200 μM.
The target in the next series is T4, p300 (Homo sapiens, UniProt Q09472).
T4 construct: made in house; host or cells: SF9 insect cells, baculovirus
The series is described as follows: MALDI-TOF analysis of p300-catalyzed acylation of histone H3 peptide in vitro. In kind it is biochemical. Conditions: 20 μM analog, MS analysis. As to the method: Cells were lysed in lysis buffer (20 mM Tris, pH 7.5, 500 mM NaCl, 4 mM MgCl2, 0.4 mM EDTA, 20% glycerol, 2 mM DTT, and supplemented with protease inhibitors). Clarified cell lysates were diluted to 300 mM NaCl, and NP-40 was added to 0.1% final concentration. Flag M2 agarose resin (Sigma) was added to the lysate and incubated for 4 hours at 4° C. […] Protein concentration and purity were estimated by comparison to BSA standards on SDS gels stained with Gelcode Blue stain (Pierce).

Entries after “also recorded” stand apart in the source; their conditions may differ.

T2 sequence (P06241 2-537 G2A): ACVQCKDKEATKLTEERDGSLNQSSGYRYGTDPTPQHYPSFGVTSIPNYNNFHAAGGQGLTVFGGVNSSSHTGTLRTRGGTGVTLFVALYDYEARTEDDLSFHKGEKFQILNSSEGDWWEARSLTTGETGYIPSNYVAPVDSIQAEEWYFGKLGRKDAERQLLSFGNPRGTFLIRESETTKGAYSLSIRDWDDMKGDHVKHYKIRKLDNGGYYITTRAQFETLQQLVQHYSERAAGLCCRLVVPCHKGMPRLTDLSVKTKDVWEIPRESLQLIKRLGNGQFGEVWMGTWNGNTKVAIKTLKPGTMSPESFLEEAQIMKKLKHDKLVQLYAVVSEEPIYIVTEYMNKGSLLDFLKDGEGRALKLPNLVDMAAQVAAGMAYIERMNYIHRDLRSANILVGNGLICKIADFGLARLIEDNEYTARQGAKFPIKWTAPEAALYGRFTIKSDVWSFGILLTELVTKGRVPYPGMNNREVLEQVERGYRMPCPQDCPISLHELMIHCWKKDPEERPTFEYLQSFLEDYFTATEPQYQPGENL
T4 sequence (Q09472 whole entry): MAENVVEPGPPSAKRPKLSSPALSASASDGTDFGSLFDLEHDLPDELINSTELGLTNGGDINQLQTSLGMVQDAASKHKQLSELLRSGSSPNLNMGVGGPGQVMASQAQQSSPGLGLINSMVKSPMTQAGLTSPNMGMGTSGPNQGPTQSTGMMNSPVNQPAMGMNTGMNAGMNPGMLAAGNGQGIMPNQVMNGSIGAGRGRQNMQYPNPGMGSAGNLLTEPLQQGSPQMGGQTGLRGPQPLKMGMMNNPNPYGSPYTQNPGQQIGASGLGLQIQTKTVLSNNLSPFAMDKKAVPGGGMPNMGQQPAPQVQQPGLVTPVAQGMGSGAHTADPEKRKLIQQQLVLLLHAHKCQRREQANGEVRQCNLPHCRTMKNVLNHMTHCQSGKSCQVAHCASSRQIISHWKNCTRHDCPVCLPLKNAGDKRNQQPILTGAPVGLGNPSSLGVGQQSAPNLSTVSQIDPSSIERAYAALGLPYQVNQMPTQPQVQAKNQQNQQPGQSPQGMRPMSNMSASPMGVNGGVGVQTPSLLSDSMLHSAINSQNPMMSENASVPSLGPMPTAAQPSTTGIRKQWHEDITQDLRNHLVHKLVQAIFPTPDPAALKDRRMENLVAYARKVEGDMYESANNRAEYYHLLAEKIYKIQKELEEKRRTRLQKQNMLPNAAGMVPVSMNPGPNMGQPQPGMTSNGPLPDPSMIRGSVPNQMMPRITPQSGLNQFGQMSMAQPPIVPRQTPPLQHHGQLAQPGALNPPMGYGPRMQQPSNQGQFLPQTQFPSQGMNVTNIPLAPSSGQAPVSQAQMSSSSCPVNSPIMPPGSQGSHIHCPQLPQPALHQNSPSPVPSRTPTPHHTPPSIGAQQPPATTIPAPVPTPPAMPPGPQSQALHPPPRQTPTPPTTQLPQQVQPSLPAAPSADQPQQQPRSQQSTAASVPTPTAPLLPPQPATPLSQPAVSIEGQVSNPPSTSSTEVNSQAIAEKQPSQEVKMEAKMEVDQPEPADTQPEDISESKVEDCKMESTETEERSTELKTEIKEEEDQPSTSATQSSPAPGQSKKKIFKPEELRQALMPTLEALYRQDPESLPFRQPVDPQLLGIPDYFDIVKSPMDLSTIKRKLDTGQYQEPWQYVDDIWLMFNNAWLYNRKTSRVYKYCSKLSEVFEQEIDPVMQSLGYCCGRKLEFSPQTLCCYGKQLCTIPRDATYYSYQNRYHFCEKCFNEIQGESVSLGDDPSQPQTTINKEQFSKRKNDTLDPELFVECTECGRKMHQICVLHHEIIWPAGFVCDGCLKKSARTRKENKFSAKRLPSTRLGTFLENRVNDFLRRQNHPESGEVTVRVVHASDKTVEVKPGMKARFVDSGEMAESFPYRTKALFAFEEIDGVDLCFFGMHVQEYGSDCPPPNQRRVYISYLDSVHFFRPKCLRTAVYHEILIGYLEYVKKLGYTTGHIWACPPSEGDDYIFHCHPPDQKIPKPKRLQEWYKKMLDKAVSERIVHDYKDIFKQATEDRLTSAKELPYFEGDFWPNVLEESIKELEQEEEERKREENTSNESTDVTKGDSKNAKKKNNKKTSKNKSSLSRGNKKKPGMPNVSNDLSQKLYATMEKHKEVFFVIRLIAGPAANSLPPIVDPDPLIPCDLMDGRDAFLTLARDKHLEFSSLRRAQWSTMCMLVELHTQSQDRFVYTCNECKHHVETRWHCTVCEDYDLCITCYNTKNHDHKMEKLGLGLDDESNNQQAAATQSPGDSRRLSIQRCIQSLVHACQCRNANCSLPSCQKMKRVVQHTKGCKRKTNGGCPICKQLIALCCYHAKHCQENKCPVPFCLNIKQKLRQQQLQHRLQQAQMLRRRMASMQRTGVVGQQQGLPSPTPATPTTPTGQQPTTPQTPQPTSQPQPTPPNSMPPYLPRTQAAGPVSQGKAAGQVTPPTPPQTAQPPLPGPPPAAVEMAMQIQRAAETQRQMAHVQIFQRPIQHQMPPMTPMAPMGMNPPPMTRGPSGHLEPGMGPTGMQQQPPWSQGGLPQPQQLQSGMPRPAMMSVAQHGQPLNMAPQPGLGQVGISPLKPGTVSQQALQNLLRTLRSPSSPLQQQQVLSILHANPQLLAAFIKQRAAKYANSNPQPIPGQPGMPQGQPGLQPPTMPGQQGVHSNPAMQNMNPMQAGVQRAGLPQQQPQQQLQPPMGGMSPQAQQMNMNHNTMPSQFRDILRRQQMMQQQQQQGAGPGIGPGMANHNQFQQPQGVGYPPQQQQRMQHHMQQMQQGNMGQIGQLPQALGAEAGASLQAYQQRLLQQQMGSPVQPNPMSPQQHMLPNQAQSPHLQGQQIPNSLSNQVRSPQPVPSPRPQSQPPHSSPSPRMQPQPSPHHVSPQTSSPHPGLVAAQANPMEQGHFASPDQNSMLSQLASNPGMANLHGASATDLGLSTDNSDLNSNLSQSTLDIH
T1 sequence (P06241 2-537): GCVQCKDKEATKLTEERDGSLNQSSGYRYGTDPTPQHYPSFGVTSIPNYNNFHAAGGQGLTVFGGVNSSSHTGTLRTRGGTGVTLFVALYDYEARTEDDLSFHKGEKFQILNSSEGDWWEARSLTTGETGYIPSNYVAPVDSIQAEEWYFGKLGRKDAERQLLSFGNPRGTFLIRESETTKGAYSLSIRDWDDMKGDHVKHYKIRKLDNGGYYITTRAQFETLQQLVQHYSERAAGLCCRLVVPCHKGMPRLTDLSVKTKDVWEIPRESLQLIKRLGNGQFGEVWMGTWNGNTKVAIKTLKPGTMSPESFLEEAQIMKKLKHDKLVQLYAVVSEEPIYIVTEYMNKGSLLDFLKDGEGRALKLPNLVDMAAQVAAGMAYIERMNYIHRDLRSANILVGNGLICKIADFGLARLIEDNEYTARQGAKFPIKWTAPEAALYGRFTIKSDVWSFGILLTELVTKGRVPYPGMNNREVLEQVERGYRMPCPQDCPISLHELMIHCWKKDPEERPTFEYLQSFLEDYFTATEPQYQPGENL
T3 sequence (P06241 2-537 C3S/C6S): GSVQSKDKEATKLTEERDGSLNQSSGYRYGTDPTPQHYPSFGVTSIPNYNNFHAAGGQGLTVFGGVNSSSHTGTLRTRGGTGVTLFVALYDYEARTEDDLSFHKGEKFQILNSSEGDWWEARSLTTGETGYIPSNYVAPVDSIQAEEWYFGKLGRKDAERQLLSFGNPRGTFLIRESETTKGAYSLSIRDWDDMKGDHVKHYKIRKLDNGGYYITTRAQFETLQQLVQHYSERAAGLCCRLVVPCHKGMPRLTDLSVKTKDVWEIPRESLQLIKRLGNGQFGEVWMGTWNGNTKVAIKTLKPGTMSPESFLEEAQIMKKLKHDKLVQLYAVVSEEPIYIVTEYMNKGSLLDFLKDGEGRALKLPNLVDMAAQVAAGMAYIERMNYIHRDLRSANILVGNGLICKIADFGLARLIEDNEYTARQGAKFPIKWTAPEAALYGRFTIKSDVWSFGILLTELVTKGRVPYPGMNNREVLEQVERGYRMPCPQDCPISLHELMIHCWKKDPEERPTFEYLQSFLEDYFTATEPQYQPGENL

For `C#CCCCC(=O)[O-].[Na+]` [Analog 6, sodium 5-hexynoate], the “qualitative comparison among alkynyl-acetate analogs as chemical reporter for protein acetylation” value in the series on Jurkat T cells [1] is “may also target cellular fatty-acylated proteins”. Also, in the series on Jurkat T cells [2], the “labeling of known lysine-acetylated proteins (enriched core histones, immunoprecipitated histone H3)” value is “specifically labeled”.
In the case of `[N-]=[N+]=NCCCCCCCCCCCCCCC(=O)O` [az-15, 15-azido-pentadecanoic acid], the “proteins recovered from labeled cell lysates compared to control (-)” value in the series on Jurkat T cell lysates was “significantly greater amounts of proteins recovered”.
As for `CCCCCCCCCCCCCCC(Br)C(=O)O` (stereo not drawn) [2-BP, 2-bromopalmitate, reference compound], in the series on Jurkat cells [3] (Jurkat cells, CHX 10 μM, HMA 1 mM, 2-BP 50 μM, 30 minutes pre-incubation), the “effect of inhibitor on alkynyl-fatty acid protein labeling (alk-12, alk-14, alk-16, 20 μM)” value is “reduced protein labeling with alk-12, alk-14 and alk-16”. Also, the “effect of chemical inhibitor on palmitate turnover on Lck” value in the series on Lck is “decreased Lck depalmitoylation rate”.
In the case of `C#CCCNc1ccc(/C=C/C2=C(C#N)C(=C(C#N)C#N)OC2(C)C)cc1` [alk-CyFur, (E)-2-(4-(4-(but-3-ynylamino)styryl)-3-cyano-5,5-dimethylfuran-2(5H)-ylidene)malononitrile], in [4], the “absorption (abs) maxima” value was 580 nm, the “emission (em) maxima” value was 640 nm, the “εmax^b (M^−1cm^−1)” value was 33,933 M^−1cm^−1 and the “ΦF^c” value turned out to be 0.0147. In [4], the “λmax^a (nm) (first column)” value worked out at 580 nm and the “λmax^a (nm) (second column)” value amounted to 640 nm.
With `C#CCCCCCCCCCCCCCCCC(=O)O` [alk-16, Octadec-17-ynoic acid], the “profile of acylated proteins after in vivo labeling” value in [5] is given as “did not reveal discrete profiles of acylated proteins in splenocytes or liver”. Further, the “labeling of proteins in bacterial cells” value with M. smegmatis was “labeled distinct proteins”. For the same compound, the “class of acylated proteins targeted by the reporter” value (shortened to “class of acylated proteins targeted”) with Jurkat cells [3] is reported as “preferentially labels S-acylated proteins”. Further, the “decay of reporter signal on Lck with excess myristate as the chase additive” value with Lck is listed as “No significant decay”. Moreover, the “effect of in-gel NH2OH treatment on fluorescent signal of reporter-labeled protein” value in the series on Lck and LAT was “reduced the fluorescent signal”. Besides, the “fatty-acylation of wild-type Fyn” value at Fyn [6] is reported as “readily detected”. The “labeling of N-myristoylation G2A-mutant Fyn” value on Fyn [7] is reported as “undetectable”.
In the case of `C#CCCC(=O)[O-].[Na+]` [Analog 5, sodium 4-pentynoate], the “sites of metabolic incorporation (MS/MS of enriched peptides)” value in the series on Jurkat T cells [1] (Jurkat T cell lysates) was “metabolically incorporated into known sites of lysine acetylation on histone H2B, H3 and H4”. Besides, in the series on Jurkat T cells [1] (Jurkat T cells), the “labeled proteins also identified by anti-acetyl-Lys proteomic studies” value is reported as 86%. The “number of labeled proteins identified” value with Jurkat T cells [1] (Jurkat T cells, three independent experiments) is “approximately 194”. The “qualitative comparison among alkynyl-acetate analogs as chemical reporter for protein acetylation” value in the series on Jurkat T cells [1] is given as “optimal chemical reporter for detecting protein acetylation”. Further, the “labeling of known lysine-acetylated proteins (enriched core histones, immunoprecipitated histone H3)” value with Jurkat T cells [2] is on record as “specifically labeled”.
Consider `C#CCCCCCCCCCCCC(=O)O` [alk-12, Tetradec-13-ynoic acid], for which the “profile of acylated proteins after in vivo labeling” value in [5] is reported as “discrete profile of acylated proteins from splenocytes similar to ex vivo labeling”. Besides, the “labeling of proteins in bacterial cells” value in the series with M. smegmatis is “labeled distinct proteins”. Besides, the “class of acylated proteins targeted” value in the series with Jurkat cells [3] was “cotranslationally targets N-myristoylated proteins”. Moreover, the “effect of in-gel NH2OH treatment on fluorescent signal of reporter-labeled protein” value with Lck and LAT is “did not alter”. The “labeling of dual S-palmitoylation-deficient C3,6S mutant Fyn” value at Fyn [8] was “efficiently labeled”. In addition, the “fatty-acylation of wild-type Fyn” value on Fyn [6] is “readily detected”. Besides, at Fyn [7], the “labeling of N-myristoylation G2A-mutant Fyn” value was “significantly reduced”.
For the compound `CCCC(=O)O` [butyric acid], the “effect on labeling of acetylated proteins with alk-4” value in series [9] is “inhibited”.
Take `[N-]=[N+]=NCCCCCCCCCCCC(=O)O` [az-12, 12-azido-dodecanoic acid]: the “decay of reporter signal on Lck with excess myristate as the chase additive” value in the series on Lck is listed as “No significant decay”. The “proteins recovered from labeled cell lysates compared to control (-)” value in the series with Jurkat T cell lysates is “significantly greater amounts of proteins recovered”.
For the compound `CC1(C)OC(=C(C#N)C#N)C(C#N)=C1/C=C/c1ccc(NC(=O)OCCN=[N+]=[N-])cc1` [az-CyFur-1], in series [4], the “absorption (abs) maxima” value was 470 nm, the “emission (em) maxima” value is on record as 580 nm, the “εmax^b (M^−1cm^−1)” value was 20,533 M^−1cm^−1 and the “ΦF^c” value was 0.0067. In series [4], the “λmax^a (nm) (first column)” value was 470 nm and the “λmax^a (nm) (second column)” value was 580 nm.
Consider `C#CCC(=O)O` [alk-2, buta-3-ynoic acid], for which the “labeling of proteins in bacterial cells” value with M. smegmatis was “labeled distinct proteins”. Further, the “labeling of acetylated proteins” value in series [10] was “found to label acetylated proteins such as histones”.
As to `C#CCC(=O)[O-].[Na+]` [Analog 4, sodium 3-butynoate], the “labeling of known lysine-acetylated proteins (enriched core histones, immunoprecipitated histone H3)” value in the series with Jurkat T cells [2] is on record as “specifically labeled”.
Consider `CCCCCCCCCCCCCCCC(=O)O` [palmitic acid], for which the “competition of alkynyl-fatty acid protein labeling (alk-12, alk-14, alk-16, 10 μM)” value in the series with Jurkat cells [11] was “alk-14 and alk-16 protein labeling is most effectively reduced”.
As to `O=S(=O)(F)Cc1ccccc1` [PMSF, phenylmethylsulfonyl fluoride, reference compound], the “effect of chemical inhibitor on palmitate turnover on Lck” value in the series with Lck was “no apparent effect on the initial rate of palmitate removal”.
For the compound `CCCCCCCCCCCCCC(=O)O` [myristic acid], in the series on Jurkat cells [11], the “competition of alkynyl-fatty acid protein labeling (alk-12, alk-14, alk-16, 10 μM)” value was “alk-12 protein labeling is selectively blocked”.
As for `C#CCCSCCNC(=O)CCNC(=O)[C@H](O)C(C)(C)COP(=O)(O)OP(=O)(O)OC[C@H]1O[C@@H](n2cnc3c(N)ncnc32)[C@H](O)[C@@H]1OP(=O)(O)O` [Analog 1, 3-butynyl-CoA], the “utilization as acyl-CoA donor for p300-catalyzed acylation of histone H3 peptide” value on p300 was “does not appear to be utilized efficiently by p300”; at p300 (listed as 3-butynyl-CoA), “not efficiently utilized by p300 in vitro”.
For `C#CCCCC(=O)O` [alk-4, hexa-5-ynoic acid], in the series on M. smegmatis, the “labeling of proteins in bacterial cells” value is listed as “labeled distinct proteins”. In [10], the “labeling of acetylated proteins” value is reported as “found to label acetylated proteins such as histones” and the “relative efficiency of labeling acetylated proteins among alk-2, alk-3, alk-4” value is recorded as “most efficient labeling of acetylated proteins; also recorded: more efficient”.
Consider `C#CCCCCCCCCCCCCCC(=O)O` [alk-14, Hexadec-15-ynoic acid], for which, in the series on Jurkat cells [3], the “class of acylated proteins targeted” value is “appears to represent a combination of alk-12 and alk-16 labeling”.

(Values after patent publication US20100203647A1, “Chemical Reporters of Protein Acylation” (THE ROCKEFELLER UNIVERSITY, priority 2008, published 2010).)
